Experiments:
[1] = target: T1, Bifunctional dihydrofolate reductase-thymidylate synthase (Toxoplasma gondii, UniProt Q07422); experiment: Inhibition of dihydrofolate reductase (DHFR) from Toxoplasma gondii(tg)
T1 sequence (Q07422 whole entry): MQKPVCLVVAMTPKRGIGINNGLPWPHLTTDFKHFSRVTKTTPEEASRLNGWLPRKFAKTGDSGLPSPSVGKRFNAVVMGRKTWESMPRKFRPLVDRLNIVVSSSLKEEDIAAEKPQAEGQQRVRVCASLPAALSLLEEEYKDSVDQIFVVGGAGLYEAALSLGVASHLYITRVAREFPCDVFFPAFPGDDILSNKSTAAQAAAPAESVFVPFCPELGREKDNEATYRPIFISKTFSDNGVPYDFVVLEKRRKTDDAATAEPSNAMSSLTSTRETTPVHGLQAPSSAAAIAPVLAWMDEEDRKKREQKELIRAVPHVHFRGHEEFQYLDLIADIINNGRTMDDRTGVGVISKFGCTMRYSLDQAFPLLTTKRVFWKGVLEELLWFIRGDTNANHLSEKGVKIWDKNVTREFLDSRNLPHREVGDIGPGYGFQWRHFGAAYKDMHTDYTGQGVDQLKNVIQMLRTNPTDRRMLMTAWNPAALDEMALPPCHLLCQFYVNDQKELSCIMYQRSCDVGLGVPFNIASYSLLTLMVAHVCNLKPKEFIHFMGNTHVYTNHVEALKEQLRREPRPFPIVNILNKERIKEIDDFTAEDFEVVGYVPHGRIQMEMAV

[2] = target: T2, Dihydrofolate reductase (Pneumocystis carinii, UniProt P16184)
T2 sequence (P16184 whole entry): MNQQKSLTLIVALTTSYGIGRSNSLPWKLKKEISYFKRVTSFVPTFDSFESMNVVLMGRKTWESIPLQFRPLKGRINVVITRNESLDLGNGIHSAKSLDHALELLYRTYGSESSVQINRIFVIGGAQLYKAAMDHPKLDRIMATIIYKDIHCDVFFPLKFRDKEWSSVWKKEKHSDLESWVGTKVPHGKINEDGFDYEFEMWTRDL
Description: Inhibition of dihydrofolate reductase (DHFR) from Pneumocystis carinii(pc)

[3] = target: T3, Dihydrofolate reductase (Rattus norvegicus, UniProt Q920D2)
T3 sequence (Q920D2 whole entry): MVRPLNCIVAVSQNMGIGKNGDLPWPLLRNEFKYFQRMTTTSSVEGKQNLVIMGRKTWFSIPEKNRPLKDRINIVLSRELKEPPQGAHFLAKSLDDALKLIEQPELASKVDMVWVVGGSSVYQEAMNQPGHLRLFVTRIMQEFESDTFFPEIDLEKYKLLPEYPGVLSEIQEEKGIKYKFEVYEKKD
Description: Inhibition of dihydrofolate reductase (DHFR) from rat liver (rl)

[4] = The compound was tested for ratio of inhibition of dihydrofolate reductase(DHFR) from rat(rl) liver and Pneumocystis carinii(pc)
[5] = The compound was tested for ratio of inhibition of dihydrofolate reductase(DHFR) from rat(rl) liver and Toxoplasma gondii(tg)
[6] = test system: Toxoplasma gondii; experiment: Inhibitory concentration of cell growth from Toxoplasma gondii; format: functional, organism-based
[7] = The compound was tested for ratio of inhibition of cell growth and dihydrofolate reductase(DHFR); format: functional
[8] = Log Ko/w value by LOGKOW program.; format: ADME; details: octanol/water; read-out: Log Ko/w

Row | Compound | IC50 [1] | IC50 [2] | IC50 [3] | Ratio [4] | Ratio [5] | IC50 [6] | Ratio [7] | logP [8]
1 | Cc1c(CN(C)c2ccccc2Cl)cnc2nc(N)nc(N)c12 | 18 nM | 84 nM | 100 nM | – | – | – | – | –
2 | COc1ccc(N(C)Cc2cnc3nc(N)nc(N)c3c2C)cc1OC | – | – | – | 0.1 | 1.5 | – | – | –
3 | COc1cccc(NCc2cnc3nc(N)nc(N)c3c2C)c1 | 7.4 nM | 68.9 nM | 80.1 nM | – | – | 371 nM | 50 | 2.14
4 | Cc1c(CNc2ccccc2Cl)cnc2nc(N)nc(N)c12 | 7.1 nM | 47 nM | 88 nM | – | – | 58 nM | 8 | 2.35
5 | Cc1c(CNc2cccc(Cl)c2)cnc2nc(N)nc(N)c12 | 11 nM | 23 nM | 37 nM | – | – | – | – | –
6 | Cc1c(CN(C)c2ccc(Cl)cc2)cnc2nc(N)nc(N)c12 | 5.4 nM | 29 nM | 26 nM | – | – | – | – | –
7 | Cc1c(CNc2ccc(Cl)cc2)cnc2nc(N)nc(N)c12 | 19 nM | 55.4 nM | 51 nM | – | – | – | – | –
8 | Cc1c(CNc2ccccc2)cnc2nc(N)nc(N)c12 | 17 nM | 80 nM | 170 nM | – | – | 317 nM | 19 | 1.79
9 | COc1ccc(OC)c(N(C)Cc2cnc3nc(N)nc(N)c3c2C)c1 | – | – | – | – | – | – | 35 | 2.42
10 | COc1cccc(N(C)Cc2cnc3nc(N)nc(N)c3c2C)c1 | 6.3 nM | 30 nM | 18 nM | – | – | – | – | –
11 | Cc1c(CNc2ccc(Br)cc2)cnc2nc(N)nc(N)c12 | 9.5 nM | 80.8 nM | 34.9 nM | – | – | – | – | –
12 | Cc1c(CN(C)c2ccc(Br)cc2)cnc2nc(N)nc(N)c12 | 30 nM | 37 nM | 36 nM | – | – | – | – | –
13 | COc1cc(N(C)Cc2cnc3nc(N)nc(N)c3c2C)cc(OC)c1OC | – | – | – | – | – | – | – | 1.76
14 | COc1ccc(NCc2cnc3nc(N)nc(N)c3c2C)cc1 | 12 nM | 95.4 nM | 55.6 nM | – | – | – | – | –
15 | COc1ccc(NCc2cnc3nc(N)nc(N)c3c2C)cc1OC | – | – | 44 nM | – | – | – | – | –
16 | COc1ccc(N(C)Cc2cnc3nc(N)nc(N)c3c2C)cc1 | 7.3 nM | 35 nM | 13 nM | – | – | – | – | –
17 | COc1ccccc1NCc1cnc2nc(N)nc(N)c2c1C | 23 nM | 117 nM | 169 nM | – | – | – | – | –

— ChEMBL document CHEMBL1132261, “Pneumocystis carinii and Toxoplasma gondii dihydrofolate reductase inhibitors and antitumor agents: synthesis and biological activities of 2,4-diamino-5-methyl-6-[(monosubstituted anilino)methyl] pyrido[2,3-d]pyrimidines” (J Med Chem, 1999)
